Converted amounts (≈) assume the structure as drawn.
Assays:
[1] = Stability in rat microsomes assessed half life; assay type: ADME, Microsome
[2] = Solubility in aqueous solution; assay type: physicochemical
[3] = Antiproliferative activity against human WERI cells assessed as inhibition of cell proliferation by propidium iodide uptake based fluoroskan microplate reader analysis; assay type: functional
[4] = Antiproliferative activity against human WERI cells assessed as inhibition of cell proliferation by measuring normalized ratio of propidium iodide uptake at 10 uM by propidium iodide uptake based fluoroskan microplate reader analysis; assay type: functional
[5] = Antiproliferative activity against human WERI cells assessed as inhibition of cell proliferation by measuring normalized ratio of propidium iodide uptake at 5 uM by propidium iodide uptake based fluoroskan microplate reader analysis; assay type: functional
[6] = Antiproliferative activity against human WI38 cells assessed as inhibition of cell proliferation at 10 uM incubated for 72 hrs by Cell-titer-Glo cell viability assay; assay type: cell-based, WI-38
[7] = Antiproliferative activity against human DMS53 cells assessed as inhibition of cell proliferation at 10 uM incubated for 72 hrs by Cell-titer-Glo cell viability assay; assay type: functional; conditions: DMS-53, 72 h
[8] = Antiproliferative activity against human MCF10A cells assessed as inhibition of cell proliferation at 10 uM incubated for 72 hrs by Cell-titer-Glo cell viability assay; assay type: cell-based, MCF-10A
MCF7 = assay: Antiproliferative activity against human MCF7 cells assessed as inhibition of cell proliferation at 10 uM incubated for 72 hrs by Cell-titer-Glo cell viability assay; assay type: functional; conditions: MCF7, 72 h
Y79 = assay: Antiproliferative activity against human Y79 cells assessed as inhibition of cell proliferation at 10 uM incubated for 72 hrs by Cell-titer-Glo cell viability assay; assay type: functional; conditions: Y79, 72 h
[9] = Antiproliferative activity against mouse B16F10 cells assessed as inhibition of cell proliferation at 10 uM incubated for 72 hrs by Cell-titer-Glo cell viability assay; assay type: functional; conditions: B16-F10, 72 h
HeLa = assay: Antiproliferative activity against human HeLa cells assessed as inhibition of cell proliferation at 10 uM incubated for 72 hrs by Cell-titer-Glo cell viability assay; assay type: functional
[10] = Antiproliferative activity against human WERI cells assessed as inhibition of cell proliferation at 10 uM by propidium iodide uptake based fluoroskan microplate reader analysis; assay type: functional
[11] = Antiproliferative activity against human WERI cells assessed as inhibition of cell proliferation at 5 uM by propidium iodide uptake based fluoroskan microplate reader analysis; assay type: functional

Work on COc1ccc2c(Cl)c(C3NCCc4cc(OC)c(OC)cc43)sc2c1 (stereo not given) yielded a half-life [1] of over 30 min and a solubility [2] of 100 µM (≈ 39 µg/mL).
Cc1ccc(N(C)C(=O)c2sc3ccccc3c2Cl)c(C)c1 gave an IC50 [3] of 4570 nM, a Ratio [4] of 0.33 and a Ratio [5] of 0.53.
COc1cc2c(cc1OC)C(c1sc3cccc(OC)c3c1Cl)NCC2 (stereo not given) gave an IC50 [3] of 320 nM, a Ratio [4] of 0.012 and a Ratio [5] of 0.008.
With COc1cc2c(cc1OC)C(c1sc3cccc(C)c3c1Cl)=NCC2 the inhibition at 72 h, 10 µM [6] was over 40%, the inhibition at 10 µM [7] was over 40% and the IC50 [3] was 340 nM. The inhibition at 72 h, 10 µM [8] was over 40%, the Ratio [4] was 0.028 and the inhibition at 10 µM (MCF7) was over 40%. The solubility [2] was 100 µM (≈ 37.2 µg/mL), the Ratio [5] was 0.042 and the inhibition at 10 µM (Y79) was over 40%. It also gave an inhibition at 10 µM [9] of over 40% and an inhibition at 10 µM (HeLa) of over 40%.
Work on Cc1c(Cc2cccc(Cl)c2)c(=O)oc2cc(O)ccc12 yielded an IC50 [3] of 5590 nM, a Ratio [4] of 0.041 and a Ratio [5] of 0.41.
Work on O=C(NCc1ccccc1N1CCCC1)c1sc2ccccc2c1Cl yielded an inhibition at 10 µM [7] of over 40%, an IC50 [3] of 1250 nM and an inhibition at 72 h, 10 µM [8] of over 40%. For the same compound, the Ratio [4] was 0.375, the inhibition at 10 µM (MCF7) was over 40% and the Ratio [5] was 0.195. The inhibition at 10 µM (Y79) was over 40%, the inhibition at 10 µM [9] was over 40% and the inhibition at 10 µM (HeLa) was over 40%.
Work on COc1ccc2c(c1)CCNC2c1sc2ccccc2c1Cl (stereo not given) yielded an IC50 [3] of 1000 nM, a Ratio [4] of 0.003 and a Ratio [5] of 0.016.
For COc1cc2c(cc1OC)CN(C(=O)c1sc3ccccc3c1Cl)CC2, the IC50 [3] was 620 nM, the Ratio [4] was 0.024 and the Ratio [5] was 0.042.
In the case of O=C(c1sc2ccccc2c1Cl)N1CCCc2ccccc21, the IC50 [3] is reported as 9800 nM, the Ratio [4] is reported as 0.216 and the Ratio [5] is reported as 0.545.
Cc1c(Cc2ccc(Cl)c(Cl)c2)c(=O)oc2cc(O)c(F)cc12 gave an IC50 [3] of 4030 nM, a Ratio [4] of 0.002 and a Ratio [5] of 0.314.
In the case of COc1cc2c(cc1OC)C(c1sc3ccccc3c1Cl)NCC2 (stereo not given), the IC50 [3] is reported as 80 nM, the Ratio [4] is reported as 0 and the Ratio [5] is reported as 0.019.
Cc1ccc2c(c1)CCCN2C(=O)c1sc2cccc(C)c2c1Cl gave an IC50 [3] of 2020 nM, a Ratio [4] of 0.4 and a Ratio [5] of 0.235.
In the case of Cc1c(Cc2c(F)cccc2Cl)c(=O)oc2cc(O)cc(O)c12, the half-life [1] is reported as 5 min, the Ratio [4] is reported as 0.102 and the Ratio [5] is reported as 0.721.
Work on COc1ccc(C)c(N(Cc2ccncc2)C(=O)c2sc3ccccc3c2Cl)c1 yielded an IC50 [3] of 5730 nM, a Ratio [4] of 0.228 and a Ratio [5] of 0.573. It also gave an inhibition at 10 µM (HeLa) of over 40%.
CN(Cc1ccccc1N1CCCC1)C(=O)c1sc2ccccc2c1Cl showed an IC50 [3] of 3440 nM, a Ratio [4] of 0.043 and a Ratio [5] of 0.234.
COc1ccc2c(Cl)c(C(=O)N3CCCc4cc(C)ccc43)sc2c1 showed an inhibition at 72 h, 10 µM [6] of over 40%, an inhibition at 10 µM [7] of over 40% and an IC50 [3] of 4030 nM. The inhibition at 72 h, 10 µM [8] was over 40%, the Ratio [4] was 0.11 and the inhibition at 10 µM (MCF7) was over 40%. The Ratio [5] was 0.294, the inhibition at 10 µM (Y79) was over 40% and the inhibition at 10 µM [9] was over 40%. The inhibition at 10 µM (HeLa) was over 40%.
Work on COc1ccc2c(c1)CCN(C)C2c1sc2ccccc2c1Cl (stereo not given) yielded an IC50 [3] of 4340 nM, a Ratio [4] of 0.027 and a Ratio [5] of 0.344.
Compound Fc1ccc2c(c1)CCCN2Cc1sc2ccccc2c1Cl has an IC50 [3] of 4090 nM, a Ratio [4] of 0.098 and a Ratio [5] of 0.286.
Work on CC1c2ccsc2CCN1C(=O)c1sc2ccccc2c1Cl (stereo not given) yielded an IC50 [3] of 1550 nM, a Ratio [4] of 0.056 and a Ratio [5] of 0.
Compound COc1ccc2sc(C(=O)N3CCCc4cc(C)ccc43)c(Cl)c2c1 has an IC50 [3] of 2830 nM, an inhibition at 72 h, 10 µM [8] of over 40% and a Ratio [4] of 0.051. For the same compound, the inhibition at 10 µM (MCF7) was over 40%, the Ratio [5] was 0.116 and the inhibition at 10 µM (Y79) was over 40%. For the same compound, the inhibition at 10 µM [9] was over 40% and the inhibition at 10 µM (HeLa) was over 40%.
For COc1cc(OC)c2c(C)c(Cc3ccccc3)c(=O)[nH]c2c1, the half-life [1] was over 30 min.
Compound Cc1ccc2c(c1)CCCN2C(=O)c1sc2cccc(F)c2c1Cl has an IC50 [3] of 3290 nM, a Ratio [4] of 0.097 and a Ratio [5] of 0.273.
Cc1ccc2c(c1)CCCN2C(=O)c1sc2ccc(F)cc2c1Cl showed an IC50 [3] of 4520 nM, a Ratio [4] of 0.064 and a Ratio [5] of 0.321.
For COc1cc2c(cc1OC)C(c1sc3cccc(F)c3c1Cl)NCC2 (stereo not given), the IC50 [3] was 490 nM, the Ratio [4] was 0 and the Ratio [5] was 0.009.
O=C(c1sc2ccccc2c1Cl)N1CCCc2cc(Cl)ccc21 showed an IC50 [3] of 3690 nM, a Ratio [4] of 0.049 and a Ratio [5] of 0.267.
With CCCc1c(Cc2cccc(Cl)c2)c(=O)[nH]c2cc(OC)cc(OC)c12 the IC50 [3] was 960 nM, the Ratio [4] was 0.037 and the Ratio [5] was 0.072.
COc1ccc2c(c1)CCCN2C(=O)c1sc2ccccc2c1Cl showed an IC50 [3] of 5660 nM, a Ratio [4] of 0.276 and a Ratio [5] of 0.695.
For Cc1ccc(S(=O)(=O)Nc2sc3ccccc3c2Cl)cc1, the IC50 [3] was 3590 nM, the Ratio [4] was 0.121 and the Ratio [5] was 0.297.
COc1cc2c(cc1OC)C(c1sc3ccccc3c1Cl)=NCC2 gave an IC50 [3] of 50 nM, a Ratio [4] of 0 and a solubility [2] of 100 µM (≈ 35.8 µg/mL). The Ratio [5] was 0.011.
With Cc1ccc(N(Cc2cccc(C)n2)C(=O)c2sc3ccccc3c2Cl)c(C)c1 the IC50 [3] was 840 nM, the Ratio [4] was 0.1 and the Ratio [5] was 0. The inhibition at 10 µM (Y79) was over 40%, the inhibition at 10 µM [9] was over 40% and the inhibition at 10 µM (HeLa) was over 40%.
In the case of COc1cccc2c1CCN=C2c1sc2cccc(C)c2c1Cl, the inhibition at 72 h, 10 µM [6] is reported as over 40%, the inhibition at 10 µM [7] is reported as over 40% and the IC50 [3] is reported as 360 nM. The inhibition at 72 h, 10 µM [8] was over 40%, the Ratio [4] was 0.13 and the inhibition at 10 µM (MCF7) was over 40%. It also gave a Ratio [5] of 0.042, an inhibition at 10 µM (Y79) of over 40% and an inhibition at 10 µM [9] of over 40%. It also gave an inhibition at 10 µM (HeLa) of over 40%.
Work on COc1ccc(C)c(N(Cc2cccnc2)C(=O)c2sc3ccccc3c2Cl)c1 yielded an IC50 [3] of 2370 nM, a Ratio [4] of 0.1 and a Ratio [5] of 0.08. It also gave an inhibition at 10 µM (HeLa) of over 40%.
With Clc1cccc2c1CCN=C2c1sc2ccccc2c1Cl the IC50 [3] was 2260 nM, the Ratio [4] was 0.1 and the Ratio [5] was 0.065.
For COc1ccc2c(c1)C(c1sc3ccccc3c1Cl)=NCC2, the IC50 [3] was 3210 nM, the Ratio [4] was 0.07 and the Ratio [5] was 0.36.
COc1ccc2c(c1)C(c1sc3cccc(C)c3c1Cl)=NCC2 showed an inhibition at 72 h, 10 µM [6] of over 40%, an inhibition at 10 µM [7] of over 40% and an IC50 [3] of 1310 nM. The inhibition at 72 h, 10 µM [8] was over 40%, the Ratio [4] was 0.047 and the inhibition at 10 µM (MCF7) was over 40%. For the same compound, the Ratio [5] was 0.019, the inhibition at 10 µM (Y79) was over 40% and the inhibition at 10 µM (HeLa) was over 40%.
Cc1ccc2c(c1)CCN=C2c1sc2ccccc2c1Cl showed an IC50 [3] of 1830 nM, an inhibition at 72 h, 10 µM [8] of over 40% and a Ratio [4] of 0.003. For the same compound, the Ratio [5] was 0.011, the inhibition at 10 µM (Y79) was over 40% and the inhibition at 10 µM [9] was over 40%. It also gave an inhibition at 10 µM (HeLa) of over 40%.
Work on COc1cc(OC)c2c(C)c(Cc3cccc(Cl)c3)c(=O)oc2c1 yielded an IC50 [3] of 770 nM, a Ratio [4] of 0.19 and a Ratio [5] of 0.088.
For COc1cc2c(cc1OC)C(c1sc3cccc(C)c3c1Cl)NCC2 (stereo not given), the solubility [2] was 100 µM (≈ 37.4 µg/mL).
COc1cc2c(cc1OC)C(c1sc3ccccc3c1Cl)N(C)CC2 (stereo not given) gave an IC50 [3] of 1770 nM, a Ratio [4] of 0 and a Ratio [5] of 0.042.
For Cc1ccc2c(c1)CCCN2C(=O)c1[nH]c2ccccc2c1Cl, the Ratio [4] was 0.76, the inhibition at 10 µM [10] was 33% and the Ratio [5] was 0.77. The inhibition at 5 µM [11] was 9%.
